Source: patent US20200368247A1, “CENICRIVIROC FOR THE TREATMENT OF FIBROSIS” (Tobira Therapeutics, Inc., priority 2014, published 2020)

What was measured:
[1] = human, in vivo
Description: (§1) Subjects with a history of HIV-2, hepatitis B and/or C, cirrhosis of the liver or any known active or chronic active liver disease were excluded from the study.
Most AEs were mild or moderate (Grade 1 or Grade 2). […] None of the Grade ≥3 AEs (preferred terms) were reported in more than 1 subject. Table 28 provides an overview of deaths, SAES, AEs, AEs by severity, AEs related to study medication, and AE leading to discontinuation.

HIV-1 = assay: Study 202 Phase 2b, virologic response (HIV-1 RNA <50 copies/mL, FDA Snapshot), with FTC/TDF
Description: as §1
The primary efficacy endpoint was virologic response at Week 24, defined as HIV-1 RNA <50 copies/mL using the FDA Snapshot Algorithm.

## CCCCOCCOc1ccc(-c2ccc3c(c2)/C=C(/C(=O)Nc2ccc([S@@+]([O-])Cc4cncn4CCC)cc2)CCCN3CC(C)C)cc1 [CVC, (S)-8-[4-(2-Butoxyethoxy)phenyl]-1-isobutyl-N-(4-{[(1-propyl-1H-imidazol-5-yl)methyl]sulfinyl}phenyl)-1,2,3,4-tetrahydro-1-benzazocine-5-carboxamide]
[1]; 48 week
  Diarrhoea, %: (15%)
  Fatigue, %: (12%)
  Headache, %: (14%)
  Nausea, %: (16%)
  Rash, %: (12%)
  Subjects with AEs leading to discontinuation of study medication: 1 n
  Subjects with AEs related to study medication: 54 n
  Subjects with AEs, by worst grade severity: Grade 1: 50 n
  Subjects with AEs, by worst grade severity: Grade 2: 44 n
  Subjects with AEs, by worst grade severity: Grade 3: 5 n
  Subjects with AEs, by worst grade severity: Grade 4: 0 n
  Syphilis, %: (1%)
  Upper respiratory tract infection, %: (16%)
[1]; 48 weeks
  AE leading to discontinuation: Disturbance in attention: 0 n
  AE leading to discontinuation: Dizziness: 0 n
  AE leading to discontinuation: Eye disorders: 0 n
  AE leading to discontinuation: Gastrointestinal disorders: 0 n
  AE leading to discontinuation: General disorders and administration site conditions: 1 n
  AE leading to discontinuation: Hypoaesthesia: 0 n
  AE leading to discontinuation: Malaise: 1 n
  AE leading to discontinuation: Musculoskeletal and connective tissue disorders: 0 n
  AE leading to discontinuation: Musculoskeletal discomfort: 0 n
  AE leading to discontinuation: Nausea: 0 n
  AE leading to discontinuation: Nervous system disorders: 0 n
  AE leading to discontinuation: Photophobia: 0 n
  Abnormal dreams, %: (8%)
  Any AE leading to discontinuation of study drug: 1 n
  Any Grade 3 AE: 5 n
  Any Grade 4 AE: 0 n
  Any SAE: 2 n
  Dizziness, %: (10%)
  Grade 3 or 4 AE: Abdominal pain: 1 n
  Grade 3 or 4 AE: Blindness unilateral: 1 n
  Grade 3 or 4 AE: Blood creatine phosphokinase increased: 1 n
  Grade 3 or 4 AE: Cardiac disorders: 1 n
  Grade 3 or 4 AE: Corneal infection: 1 n
  Grade 3 or 4 AE: Depression: 0 n
  Grade 3 or 4 AE: Dermatitis allergic: 0 n
  Grade 3 or 4 AE: Ear and labyrinth disorders: 0 n
  Grade 3 or 4 AE: Eye disorders: 1 n
  Grade 3 or 4 AE: Gastrointestinal disorders: 1 n
  Grade 3 or 4 AE: General disorders and administration site conditions: 1 n
  Grade 3 or 4 AE: Infections and infestations: 1 n
  Grade 3 or 4 AE: Investigations: 1 n
  Grade 3 or 4 AE: Palpitations: 1 n
  Grade 3 or 4 AE: Psychiatric disorders: 1 n
  Grade 3 or 4 AE: Pyrexia: 1 n
  Grade 3 or 4 AE: Skin and subcutaneous tissue disorders: 0 n
  Grade 3 or 4 AE: Stress: 1 n
  Grade 3 or 4 AE: Tinnitus: 0 n
  Grade 3 or 4 AE: Weight decreased: 0 n
  Insomnia, %: (6)
  Lymphadenopathy, %: (6%)
  Nasopharyngitis, %: (9%)
  SAE: Blindness unilateral: 1 n
  SAE: Corneal infection: 1 n
  SAE: Depression: 0 n
  SAE: Eye disorders: 1 n
  SAE: Gastroenteritis: 1 n
  SAE: Infections and infestations: 2 n
  SAE: Psychiatric disorders: 0 n
  Subjects with serious AEs: 2 n
  Subjects with ≥1 AE: 99 n
HIV-1; CVC 100 mg arm
  subjects who prematurely discontinued the study: 29%
HIV-1; CVC 100 mg, Week 24
  subjects with virologic success (HIV-1 RNA <50 copies/mL): 76%
HIV-1; CVC 100 mg, Week 48
  subjects with virologic success (HIV-1 RNA <50 copies/mL): 68%
HIV-1; CVC 200 mg arm
  subjects who prematurely discontinued the study: 27%
HIV-1; CVC 200 mg, Week 24
  subjects with virologic success (HIV-1 RNA <50 copies/mL): 73%
HIV-1; CVC 200 mg, Week 48
  subjects with virologic success (HIV-1 RNA <50 copies/mL): 64%
